Experimental data: article PMC10466253, “Derivatives of 9-phosphorylated acridine as butyrylcholinesterase inhibitors with antioxidant activity and the ability to inhibit β-amyloid self-aggregation: potential therapeutic agents for Alzheimer’s disease” (Frontiers in Pharmacology, 2023)
Marks after values point to notes of the source that are not given here.

How the values were obtained:
[1] = biological target: T1, Human erythrocyte AChE (Homo sapiens, UniProt P22303); test: In vitro inhibition of AChE activity (spectrophotometric, ATCh iodide substrate); format: biochemical; conditions: for inhibition at 20 µM: read-out: Human erythrocyte AChE, (%) inhibition; for Human erythrocyte AChE, (%) inhibition: compound concentration 20 µM, mean ± SEM, n = 3
T1 construct: Human erythrocyte AChE, (%); purchased Sigma-Aldrich; host or cells: human erythrocytes
T1 sequence (P22303 32-617 isoform P22303-2 limits assumed): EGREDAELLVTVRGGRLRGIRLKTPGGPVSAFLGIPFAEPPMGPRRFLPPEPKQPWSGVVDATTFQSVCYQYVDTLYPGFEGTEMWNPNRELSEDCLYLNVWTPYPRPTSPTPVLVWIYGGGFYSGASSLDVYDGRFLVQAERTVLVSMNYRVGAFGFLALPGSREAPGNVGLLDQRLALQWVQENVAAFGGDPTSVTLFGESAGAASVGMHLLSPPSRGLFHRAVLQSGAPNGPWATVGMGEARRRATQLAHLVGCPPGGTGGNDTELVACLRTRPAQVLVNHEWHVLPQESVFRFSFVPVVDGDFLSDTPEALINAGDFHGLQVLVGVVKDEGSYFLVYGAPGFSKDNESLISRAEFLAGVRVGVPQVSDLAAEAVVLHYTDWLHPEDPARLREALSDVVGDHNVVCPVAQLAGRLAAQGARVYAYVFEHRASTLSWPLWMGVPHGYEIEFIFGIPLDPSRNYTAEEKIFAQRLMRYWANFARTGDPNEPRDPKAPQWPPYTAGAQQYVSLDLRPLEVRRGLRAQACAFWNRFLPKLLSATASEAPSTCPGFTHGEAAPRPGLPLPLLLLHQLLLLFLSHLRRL
Description: (§1) Enzymes, substrates, and reference compounds were from Sigma-Aldrich (St. Louis, MO, United States). […] Experimental conditions: K,Na-phosphate buffer (100 mM), 25°С, pH 7.5 for AChE and BChE and pH 8.0 for CES assay. Measurements were carried out on a BioRad Benchmark Plus microplate spectrophotometer (Hercules, CA, United States).
(§2) Test compounds were dissolved in DMSO; final concentration of solvent in the incubation mixture was 2% (v/v).

[2] = biological target: T2, Equine serum BChE (Equus caballus, UniProt P81908); test: In vitro inhibition of BChE activity (spectrophotometric, BTCh iodide substrate); format: biochemical; conditions: for inhibition at 20 µM: read-out: Equine serum BChE, (%) inhibition; for Equine serum BChE, (%) inhibition: compound concentration 20 µM, mean ± SEM, n = 3
T2 construct: Equine serum BChE, (%); purchased Sigma-Aldrich; host or cells: equine serum
T2 sequence (P81908 whole entry): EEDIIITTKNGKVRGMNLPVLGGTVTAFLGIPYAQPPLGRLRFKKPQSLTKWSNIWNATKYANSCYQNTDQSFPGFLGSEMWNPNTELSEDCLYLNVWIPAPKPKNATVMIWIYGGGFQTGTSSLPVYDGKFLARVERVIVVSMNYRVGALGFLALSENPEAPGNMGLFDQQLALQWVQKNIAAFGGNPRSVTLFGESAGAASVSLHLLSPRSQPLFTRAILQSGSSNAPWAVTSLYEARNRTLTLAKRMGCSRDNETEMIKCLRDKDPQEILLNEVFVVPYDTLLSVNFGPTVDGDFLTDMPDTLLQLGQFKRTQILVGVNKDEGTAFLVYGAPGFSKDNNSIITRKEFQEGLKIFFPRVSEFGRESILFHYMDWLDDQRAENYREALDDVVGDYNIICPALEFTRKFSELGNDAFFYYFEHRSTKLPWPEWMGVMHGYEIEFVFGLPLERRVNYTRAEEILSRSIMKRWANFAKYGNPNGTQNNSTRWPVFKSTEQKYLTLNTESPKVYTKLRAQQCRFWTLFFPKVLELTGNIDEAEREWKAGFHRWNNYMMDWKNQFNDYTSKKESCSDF
Description: as §1, §2

[3] = test system: Porcine liver CES; test: In vitro inhibition of CES activity (spectrophotometric, 4-NPA substrate); format: biochemical; conditions: compound concentration 20 µM; mean ± SEM, n = 3
Description: as §1, §2

[4] = biological target: T3, β-amyloid (1-42) (Aβ42) (Homo sapiens, UniProt P05067); test: Inhibition of Aβ42 self-aggregation, thioflavin T fluorescence method; format: biochemical; conditions: Aβ42 50 µM, compound 100 µM, 24 h, 37°C; mean ± SEM, n = 3
T3 construct: purchased AnaSpec Inc
T3 sequence (P05067 672-713 limits assumed): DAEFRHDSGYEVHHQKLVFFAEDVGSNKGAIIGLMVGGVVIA
Description: Lyophilized HFIP-pretreated Aβ42 (AnaSpec Inc., 0.5 mg) was dissolved in DMSO to obtain a stable 500 μM solution. […] Myricetin and Propidium iodide in the same concentration were used as references.
Therefore, the decrease in ThT fluorescence in the presence of the studied compound correlates with its activity to inhibit the formation of amyloid aggregates.

[5] = ABTS radical cation scavenging activity assay; conditions: for ABTS•+-scavenging activity, TEAC: Trolox equivalent antioxidant capacity, ratio of slopes compound/Trolox; for IC50: concentration for 50% reduction of ABTS radical cation
Description: Radical scavenging activity of the compounds was evaluated using the ABTS radical cation (2,2ʹ-azinobis-(3-ethylbenzothiazoline-6-sulfonic acid), ABTS^•+) decolorization assay ([Re et al., 1999]), with minor modifications described in detail in [Makhaeva et al. (2019a)]. To prepare the solution of ABTS^•+, equal volumes of aqueous solutions of 7 mM ABTS and 2.45 mM potassium persulfate were incubated for 12–16 h at room temperature in the dark. Radical scavenging capacity of the compounds was determined by mixing 10 μL of compound solution in DMSO with 240 μL of ABTS^•+ working solution in ethanol (100 μM final concentration). The reduction in ABTS^•+ absorbance was measured spectrophotometrically at 734 nm using a xMark UV/VIS microplate spectrophotometer (Bio-Rad, Hercules, CA, United States) for 1 h with an interval of 10 min compared to a standard synthetic antioxidant Trolox (6-hydroxy-2,5,7,8-tetramethylchroman-2-carboxylic acid). Ascorbic acid was used as a positive control.
The antioxidant activity of the compounds was reported as Trolox equivalent antioxidant capacity (TEAC values) as the ratio of the slopes of the concentration−response curves, test compound/Trolox. The IC50 values for the test compounds were also determined.

[6] = FRAP (ferric reducing antioxidant power) assay; conditions: Trolox equivalents; 1 h, 37°C, pH 3.6
Description: The ferric reducing antioxidant power (FRAP) assay proposed by [Benzie and Strain (1996)]; [Benzie and Strain (1999)] modified to be performed in 96-well microplates as described in detail in [Makhaeva et al. (2020)] was used. 10 μL (0.5 mM) of the tested or reference compounds were mixed with 240 µL of FRAP reagent (2.5 mL of 10 mM TPTZ (2,4,6-tris(2-pyridyl)-s-triazine) solution in 40 mM HCl, 2.5 mL of 20 mM FeCl3 in distilled water and 25 mL of 0.3 M acetate buffer pH 3.6); the absorbance of the mixture was measured spectrophotometrically (λ = 593 nm) with a FLUOStar OPTIMA microplate reader at 600 nm after a 1 h incubation at 37°C against a blank. Trolox was used as a reference compound. The results were expressed as Trolox equivalents (TE)—the ratio of the concentrations of Trolox and the test compound resulting in the same effect on ferric reducing activity.

[7] = biological target: T4, BChE (Equus caballus, UniProt P81908); test: Kinetic studies of BChE inhibition (Lineweaver-Burk); format: biochemical, equine
T4 construct: Equine serum BChE, (%); purchased Sigma-Aldrich; host or cells: equine serum
T4 sequence (P81908 whole entry): as the sequence (P81908 whole entry) above
Description: Mechanism of BChE inhibition was assessed by a detailed analysis of enzyme kinetics with three increasing concentrations of inhibitor and six substrate concentrations as described in detail in [Makhaeva et al. (2017)].
Lineweaver-Burk plots-double reciprocal representations of Michaelis-Menten parameters-were used to assess the type of inhibition.

| SMILES | inhibition at 20 µM [1] [%] | inhibition at 20 µM [2] [%] | Porcine liver CES, (%) inhibition [3] | inhibition at 100 µM [4] [%] | ABTS•+-scavenging activity, TEAC [5] | IC50 [5] [µM] | FRAP Fe3+-reducing activity, TE [6] [TE] | IC50 [2] [µM] | Inhibition of Aβ42 self-aggregation, (%) [4] | also measured |
| --- | --- | --- | --- | --- | --- | --- | --- | --- | --- | --- |
| O=P(Oc1ccccc1)(Oc1ccccc1)c1c2ccccc2nc2ccccc12 [Compound 2c] | 12.4 ± 1.4 | 32.7 ± 2.6 | 27.6 ± 2.2% | 3.6 ± 0.3 |  |  |  |  |  |  |
| O=P(CCc1ccc(Cl)cc1)(CCc1ccc(Cl)cc1)c1c2ccccc2nc2ccccc12 [Compound 2f] | 15.2 ± 1.3 | 20.4 ± 1.6 | 18.4 ± 1.4% | 11.2 ± 0.8 |  |  |  |  |  |  |
| O=P(Oc1ccccc1)(Oc1ccccc1)C1c2ccccc2Nc2ccccc21 [Compound 1c] | 6.3 ± 0.9 |  | 21.6 ± 1.7% | 19.8 ± 1.5 | 1.13 ± 0.05 | 17.8 ± 1.1 | 1.13 ± 0.02 | 48 ± 3.1 |  |  |
| Cc1c(C)c2c(c(C)c1O)CCC(C)(C(=O)O)O2 (centres unmarked) [Trolox, 6-hydroxy-2,5,7,8-tetramethylchroman-2-carboxylic acid, reference compound] |  |  |  |  | 1.0 | 20.1 ± 0.7 | 1.0 |  |  |  |
| O=P(OCc1ccccc1)(OCc1ccccc1)c1c2ccccc2nc2ccccc12 [Compound 2d] | 10.8 ± 1.5 |  | 20.4 ± 1.8% |  |  |  |  | 6.9 ± 0.55 | n.а | times less effective BChE inhibitor than the corresponding dihydroacridine (1d) ([2]; ratio of BChE IC50 values): 2.4 |
| COP(=O)(OC)c1c2ccccc2nc2ccccc12 [Compound 2a] |  |  | 4.3 ± 1.1% |  |  |  | 0.08 ± 0.02 |  | 4.9 ± 0.4% | Human erythrocyte AChE, (%) inhibition [1]: 9.1 ± 1.2%; Equine serum BChE, (%) inhibition [2]: 9.0 ± 1.4% |
| O=P(CCc1ccccc1)(CCc1ccccc1)C1c2ccccc2Nc2ccccc21 [Compound 1e] | 8.8 ± 2 |  | 22.2 ± 1.7% | 46.9 ± 4.2 | 0.9 ± 0.03 | 21.8 ± 0.9 | 1.10 ± 0.01 | 3.22 ± 0.25 |  | time to reach the maximum degree of ABTS•+ radical binding [5]: 30 min |
| O=P(OCc1ccccc1)(OCc1ccccc1)C1c2ccccc2Nc2ccccc21 [Compound 1d, 9-bis(benzyloxy)phosphoryl-9,10-dihydroacridine] | 7.6 ± 1.2 |  | 18.7 ± 1.4% | 58.9 ± 4.7 | 0.97 ± 0.04 | 20.8 ± 1.3 | 0.97 ± 0.06 | 2.9 ± 0.23 |  | type of BChE inhibition ([7]; Lineweaver-Burk analysis): mixed type of inhibition; Ki ([7]; steady state inhibition, read-out: competitive component (Ki) of BChE inhibition): 2.22 ± 0.19 µM |
| O=[N+]([O-])c1ccc(OP(=O)(O)Oc2ccc([N+](=O)[O-])cc2)cc1 [BNPP, reference compound] |  |  | 99.1 ± 0.93 ^e % |  |  |  |  |  |  |  |
| O=P(CCc1ccc(Cl)cc1)(CCc1ccc(Cl)cc1)C1c2ccccc2Nc2ccccc21 [Compound 1f] | 6.4 ± 1 |  |  | 34.1 ± 2.7 | 0.80 ± 0.03 | 22.6 ± 0.7 | 0.81 ± 0.02 | 21.7 ± 1.7 |  | time to reach the maximum degree of ABTS•+ radical binding [5]: 30 min |
| CCOP(=O)(OCC)c1c2ccccc2nc2ccccc12 [Compound 2b] | 10.4 ± 1.2 | 10.8 ± 1.5 | 10.5 ± 1.3% |  |  |  | 0.07 ± 0.01 |  | n.а |  |
| CC[N+](C)(CC)CCC[n+]1c(-c2ccccc2)c2cc(N)ccc2c2ccc(N)cc21.[I-].[I-] [Propidium iodide, reference compound] |  |  |  |  |  |  |  |  | 90.7 ± 7.1% |  |
| O=C1O[C@H]([C@@H](O)CO)C(O)=C1O [Ascorbic acid, reference compound] |  |  |  |  | 0.97 ± 0.04 | 22.4 ± 2.2 | 1.23 ± 0.11 |  |  |  |
| O=P(CCc1ccccc1)(CCc1ccccc1)c1c2ccccc2nc2ccccc12 [Compound 2e] | 10.4 ± 1.3 | 25.7 ± 2 | 13.5 ± 1.7% |  |  |  |  |  | n.а |  |
| CCOP(=O)(OCC)C1c2ccccc2Nc2ccccc21 [Compound 1b] | 4.4 ± 1.1 | 16.9 ± 1.5 | n.а | 8.1 ± 0.8 | 0.97 ± 0.03 | 20.8 ± 1.3 | 1.15 ± 0.01 |  |  |  |
| COP(=O)(OC)C1c2ccccc2Nc2ccccc21 [Compound 1a] |  |  | n.а |  | 0.99 ± 0.04 | 21.3 ± 1.4 | 1.60 ± 0.01 |  | 4.9 ± 0.4% | Human erythrocyte AChE, (%) inhibition [1]: 5.3 ± 1.3%; Equine serum BChE, (%) inhibition [2]: 21.3 ± 1.7% |
